Assay results reported in patent US20200030355A1, “COMBINATION THERAPY FOR TREATING CANCER” (Epizyme, Inc., priority 2014, published 2020).
Structures can show the parent of a compound that is named as a salt.

Tests used:
Format in all cases: cell-based, human
MV4-11 (MLL-AF4) = experiment: Combination proliferation study with Compound A2 (ATP/CellTiter-Glo, Chou-Talalay combination index); conditions: for Combination with Compound A2, MV4-11 (MLL-AF4) / Combination with Compound A2, MV4-11: 7 Day Cotreatment Model; for Combination with Compound A2, MV4-11 (MLL-AF4): Table 4; for Combination with Compound A2, MV4-11: Table 5
Procedure: (§1) The acute myelogenous leukemia cell lines MV4-11 (MLL-AF4) and MOLM-13 (MLL-AF9) were obtained from American Type Culture Collection (ATCC; Rockville, Md.) and Deutsche Sammlung von Mikroorganismen and Zellkulturen (DSMZ; Braunschweig, Germany) respectively.
(§2) Studies were performed using MLL-rearranged cell lines in vitro to evaluate the anti-proliferative effect of a combination of two agents together on cell growth. Initial proliferation studies were performed to determine the IC50 of a given compound in each cell line. The cell counts were measured by ATP quantitation using the Promega Cell Titer Glo kit and luminescence values corresponded to the amount of ATP in a given well.
(§3) Compounds were evaluated for synergy in the co-treatment phase by testing the compounds in a concentration range which was bracketed around their IC50 values. The compounds were plated to a 96 well plate in a matrix format (FIG. 3) which includes increasing concentrations of each drug in the combination in a constant ratio, in addition to the effect of each compound alone in the study. Cells were seeded and grown in the log-linear phase for 3 or 7 days in the co-treatment phase. Minimum inhibition (DMSO alone) controls were used in each plate to calculate fraction affected (Fa) of a test well. DMSO concentration was kept at 0.1% v/v.
(§4) The drug combination analysis was performed utilizing the Chou-Talalay method Synergy was determined using the software package Calcusyn by Biosoft. The combination index (CI) is a quantitative term used to describe the level of synergy or antagonism in a given test system. A combination index less than one indicates synergy, and a CI greater than one indicates antagonism. Further, strong synergism is achieved when the CI value falls below 0.3.
(§5) Graphs representing values of combination index (CI) versus Fractional effect (Fa) known as Fa-CI plots were generated and synergy was evaluated. Drug synergy was statistically defined by CI values less than 1, antagonism by CI>1 and additive effect by CI equal to 1.
as §5
The HP-D300 digital dispenser (Tecan) was used to dispense compounds in a combinatorial matrix. […] Cell viability was measured via ATP content using CellTiter-Glo® (Promega).
Viability was determined using CellTiter-Glo® (Promega).
as §2, with “Proliferation studies” for “Studies”, “MOLM-13, MV4-11 and SKM-1” for “MLL-rearranged”, “cancer cell killing” for “anti-proliferative”, “IC50 values” for “IC50”, “correspond” for “corresponded”
These studies were performed to evaluate both the combinatorial effect of compounds on cell killing and the durability of the effect by washing out one of the agents.
Compounds evaluated for synergy in the co-treatment phase were tested in a range which was bracketed around the IC50's. The compounds were plated to a 96 well plate in a matrix format which includes increasing concentrations of each drug in the combination in a constant ratio, in addition to the effect of each compound alone in the study.

MOLM-13 (MLL-AF9) = experiment: as above; conditions: for Combination with Compound A2, MOLM-13 (MLL-AF9) / Combination with Compound A2, MOLM13: 7 Day Cotreatment Model; for Combination with Compound A2, MOLM-13 (MLL-AF9): Table 4; for Combination with Compound A2, MOLM13: Table 5
Procedure: as §1, §2, §3, §4, §5
Graphs representing values of combination index (CI) versus Fractional effect (Fa) known as Fa-CI plots were generated and synergy was evaluated. Drug synergy was statistically defined by CI values less than 1, antagonism by CI>1 and additive effect by CI equal to 1. […]
Cell viability was measured via ATP content using CellTiter-Glo® (Promega).
as §2, with “Proliferation studies” for “Studies”, “MOLM-13, MV4-11 and SKM-1” for “MLL-rearranged”, “cancer cell killing” for “anti-proliferative”, “IC50 values” for “IC50”, “correspond” for “corresponded”, “well. […]” for “well.”
Compounds evaluated for synergy in the co-treatment phase were tested in a range which was bracketed around the IC50's.

MOLM-13 cells = experiment: EPZ-5676 300 nM 7-day pre-treatment, then second compound 72 hours, ATPLite, IC50 shift (Example 6); conditions: 300 nM EPZ-5676 or DMSO 7-day pre-treatment, then 2nd compound 72 hours, Synergy = IC50 of 2nd compound decreased by 2-fold or more vs DMSO control
Procedure: Cells were then equilibrated in incubators for 24 hours before treatment with a second compound. Treated assay plates were incubated with a second compound for 72 hours. After this time, plates were developed for endpoint analysis using ATPLite to measure ATP content, which is used as an indicator of cell viability.
“N/D” means that IC50 of the second compound could not be determined for both conditions.

## N[C@@H]1C[C@H]1c1ccccc1 (racemic) [Tranylcypromine]
MV4-11 (MLL-AF4); 7 Day Cotreatment
  Combination of Compound A2 and anti-cancer agent, MV4-11: synergy
MV4-11 (MLL-AF4)
  Combination with Compound A2, MV4-11 (MLL-AF4): Synergy (Drug synergy was statistically defined by CI values less than 1)
MOLM-13 (MLL-AF9); 7 Day Cotreatment
  Combination of Compound A2 and anti-cancer agent, MOLM-13: synergy
MOLM-13 (MLL-AF9)
  Combination with Compound A2, MOLM-13 (MLL-AF9): Strong Synergy

## CC1(C)CCC(CN2CCN(c3ccc(C(=O)NS(=O)(=O)c4ccc(NCC5CCOCC5)c([N+](=O)[O-])c4)c(Oc4cnc5[nH]ccc5c4)c3)CC2)=C(c2ccc(Cl)cc2)C1 [ABT-199]
MV4-11 (MLL-AF4)
  Combination with Compound A2, MV4-11 (MLL-AF4): Synergy (Drug synergy was statistically defined by CI values less than 1)
MOLM-13 (MLL-AF9)
  Combination with Compound A2, MOLM-13 (MLL-AF9): Additive --> Synergy

## C[C@@H]1COCCN1c1cc(C2(S(C)(=O)=O)CC2)nc(-c2cccc3[nH]ccc23)n1 [AZ20]
MOLM-13 (MLL-AF9)
  Combination with Compound A2, MOLM13: Synergy (Drug synergy was statistically defined by CI values less than 1)

## Cn1c(=O)n(-c2ccc(C(C)(C)C#N)cc2)c2c3cc(-c4cnc5ccccc5c4)ccc3ncc21 [BEZ235]
MOLM-13 (MLL-AF9)
  Combination with Compound A2, MOLM13: Additive (additive effect by CI equal to 1)

## O=C(Nc1ccncc1)c1cc([N+](=O)[O-])ccc1Cl [Compound T0070907]
MOLM-13 (MLL-AF9)
  Combination with Compound A2, MOLM13: Additive (additive effect by CI equal to 1)
MOLM-13 (MLL-AF9); MOLM-13 cells, co-treatment model of Example 3
  Combination with EPZ-5676: Synergy (Drug synergy was statistically defined by CI values less than 1)

## Nc1nc(F)nc2c1ncn2[C@@H]1O[C@H](CO)[C@@H](O)[C@@H]1O [Fludarabine]
MOLM-13 (MLL-AF9)
  Combination with Compound A2, MOLM-13 (MLL-AF9): Synergy (Drug synergy was statistically defined by CI values less than 1)

## C=CC(=O)N1CCC[C@@H](n2nc(-c3ccc(Oc4ccccc4)cc3)c3c(N)ncnc32)C1 [Ibrutinib]
MV4-11 (MLL-AF4)
  Combination with Compound A2, MV4-11 (MLL-AF4): Synergy (Drug synergy was statistically defined by CI values less than 1)

## Nc1cccc2c1CN(C1CCC(=O)NC1=O)C2=O (stereo not drawn) [Lenalidomide]
MOLM-13 (MLL-AF9)
  Combination with Compound A2, MOLM-13 (MLL-AF9): Combination Benefit

## CC1=CC(=O)c2ccccc2C1=O [Menadione]
MOLM-13 cells
  MOLM-13 (summary of combination study: EPZ-5676 + 2nd compound): Synergy (considered synergistic if the IC50 value of the second compound decreased by 2-fold or more when EPZ-5676 was added as compared to the DMSO control)

## CO[C@@H]1[C@H](N(C)C(=O)c2ccccc2)C[C@H]2O[C@]1(C)n1c3ccccc3c3c4c(c5c6ccccc6n2c5c31)C(=O)NC4 [Midostaurin]
MV4-11 (MLL-AF4)
  Combination with Compound A2, MV4-11 (MLL-AF4): Synergy (Drug synergy was statistically defined by CI values less than 1)

## O=c1cc(N2CCOCC2)oc2c(-c3cccc4c3sc3ccccc34)cccc12 [NU 7441]
MOLM-13 cells
  MOLM-13 (summary of combination study: EPZ-5676 + 2nd compound): Synergy (considered synergistic if the IC50 value of the second compound decreased by 2-fold or more when EPZ-5676 was added as compared to the DMSO control)

## COc1ccc(C2=N[C@@H](c3ccc(Cl)cc3)[C@@H](c3ccc(Cl)cc3)N2C(=O)N2CCNC(=O)C2)c(OC(C)C)c1 [Nutlin-3]
MOLM-13 cells
  MOLM-13 (summary of combination study: EPZ-5676 + 2nd compound): Synergy (considered synergistic if the IC50 value of the second compound decreased by 2-fold or more when EPZ-5676 was added as compared to the DMSO control)

## COC1=CC(c2cc3ccccc3[nH]2)=N/C1=C\c1[nH]c(C)cc1C [Obatoclax]
MOLM-13 (MLL-AF9)
  Combination with Compound A2, MOLM-13 (MLL-AF9): Additive (additive effect by CI equal to 1)

## O=C(c1cc(Cc2n[nH]c(=O)c3ccccc23)ccc1F)N1CCN(C(=O)C2CC2)CC1 [Olaparib]
MOLM-13 cells
  MOLM-13 (summary of combination study: EPZ-5676 + 2nd compound): Synergy (considered synergistic if the IC50 value of the second compound decreased by 2-fold or more when EPZ-5676 was added as compared to the DMSO control)

## Nc1cccc2c1C(=O)N(C1CCC(=O)NC1=O)C2=O (stereo not drawn) [Pomalidomide]
MOLM-13 cells
  MOLM-13 (summary of combination study: EPZ-5676 + 2nd compound): Synergy (considered synergistic if the IC50 value of the second compound decreased by 2-fold or more when EPZ-5676 was added as compared to the DMSO control)

## O=C(c1ccc(OCCN2CCCCC2)cc1)c1c(-c2ccc(O)cc2)sc2cc(O)ccc12 [Raloxifene Hydrochloride]
MOLM-13 cells
  MOLM-13 (summary of combination study: EPZ-5676 + 2nd compound): Synergy (considered synergistic if the IC50 value of the second compound decreased by 2-fold or more when EPZ-5676 was added as compared to the DMSO control)

## Cc1cccc(-c2[nH]c(C(C)(C)C)nc2-c2ccc3c(c2)OCO3)n1 [SB-505124]
MOLM-13 cells
  MOLM-13 (summary of combination study: EPZ-5676 + 2nd compound): Synergy (considered synergistic if the IC50 value of the second compound decreased by 2-fold or more when EPZ-5676 was added as compared to the DMSO control)

## O=C1c2ccccc2-c2nc3nonc3nc21 [SMER 3]
MOLM-13 cells
  MOLM-13 (summary of combination study: EPZ-5676 + 2nd compound): Synergy (considered synergistic if the IC50 value of the second compound decreased by 2-fold or more when EPZ-5676 was added as compared to the DMSO control)

## O=C(Nc1ccccc1-c1cn2c(CN3CCNCC3)csc2n1)c1cnc2ccccc2n1 [SRT-1720]
MV4-11 (MLL-AF4)
  Combination with Compound A2, MV4-11 (MLL-AF4): Synergy (Drug synergy was statistically defined by CI values less than 1)
MOLM-13 cells
  MOLM-13 (summary of combination study: EPZ-5676 + 2nd compound): Synergy (considered synergistic if the IC50 value of the second compound decreased by 2-fold or more when EPZ-5676 was added as compared to the DMSO control)

## Cc1coc2c1C(=O)C(=O)c1c-2ccc2c1CCCC2(C)C [TANSHINONE IIA]
MOLM-13 cells
  MOLM-13 (summary of combination study: EPZ-5676 + 2nd compound): Synergy (considered synergistic if the IC50 value of the second compound decreased by 2-fold or more when EPZ-5676 was added as compared to the DMSO control)

## CO[C@H]1C[C@@H]2CC[C@@H](C)[C@@](O)(O2)C(=O)C(=O)N2CCCC[C@H]2C(=O)O[C@H]([C@H](C)C[C@@H]2CC[C@@H](OC(=O)C(C)(CO)CO)[C@H](OC)C2)CC(=O)[C@H](C)/C=C(\C)[C@@H](O)[C@@H](OC)C(=O)[C@H](C)C[C@H](C)/C=C/C=C/C=C/1C [Temsirolimus]
MOLM-13 cells
  MOLM-13 (summary of combination study: EPZ-5676 + 2nd compound): Synergy (considered synergistic if the IC50 value of the second compound decreased by 2-fold or more when EPZ-5676 was added as compared to the DMSO control)

## Cn1cncc1[C@@](N)(c1ccc(Cl)cc1)c1ccc2c(c1)c(-c1cccc(Cl)c1)cc(=O)n2C [Tipifarnib]
MV4-11 (MLL-AF4)
  Combination with Compound A2, MV4-11: Synergy (Drug synergy was statistically defined by CI values less than 1)
MOLM-13 cells
  MOLM-13 (summary of combination study: EPZ-5676 + 2nd compound): Synergy (considered synergistic if the IC50 value of the second compound decreased by 2-fold or more when EPZ-5676 was added as compared to the DMSO control)

## CC[C@@]1(O)C(=O)OCc2c1cc1n(c2=O)Cc2cc3c(CN(C)C)c(O)ccc3nc2-1 [Topotecan Hydrochloride]
MOLM-13 cells
  MOLM-13 (summary of combination study: EPZ-5676 + 2nd compound): Synergy (considered synergistic if the IC50 value of the second compound decreased by 2-fold or more when EPZ-5676 was added as compared to the DMSO control)

## CC(C)C[C@H](NC(=O)[C@H](Cc1ccccc1)NC(=O)c1cnccn1)B(O)O [Velcade, bortezomib]
MOLM-13 (MLL-AF9)
  Combination with Compound A2, MOLM-13 (MLL-AF9): Combination Benefit

## CC[C@@H]1C(=O)N(C)c2cnc(Nc3ccc(C(=O)N[C@H]4CC[C@H](N5CCN(CC6CC6)CC5)CC4)cc3OC)nc2N1C(C)C [Volasertib]
MV4-11 (MLL-AF4)
  Combination with Compound A2, MV4-11: Antagonstic

## COc1ccc(Cl)c(Nc2nc3ccccc3nc2NS(=O)(=O)c2cccc(NC(=O)C(C)(C)N)c2)c1 [XL147]
MOLM-13 cells
  MOLM-13 (summary of combination study: EPZ-5676 + 2nd compound): Synergy (considered synergistic if the IC50 value of the second compound decreased by 2-fold or more when EPZ-5676 was added as compared to the DMSO control)
